{"source": "patent US8288342B2", "about": "“Methods for treating vasomotor symptoms in castrated prostatic cancer patients with low dose cyproterone acetate” (priority 2008, dated 2012)", "origin": "cited, not measured here", "test_system": "hot flashes", "details": "37 subjects with bothersome hot flashes; cited from earlier work", "data": [{"compound": "CC(=O)O[C@]1(C(C)=O)CC[C@H]2[C@@H]3C=C(C)C4=CC(=O)CC[C@]4(C)[C@H]3CC[C@@]21C", "note": "[MA, megestrol acetate]", "values": [{"measurement": "Therapeutic efficacy: reduction in hot flashes", "result": 70, "unit": "%"}]}]}
